Reference: paper doi:10.1101/2023.11.24.568596v1 (biorxiv, 2023)
Each block holds one compound with its values, some of them ahead of it.

Tests used:
Conditions in all cases: binder
[1] = target: T1, BMPR2 (Homo sapiens, UniProt Q13873)
T1 sequence (Q13873 1-1038): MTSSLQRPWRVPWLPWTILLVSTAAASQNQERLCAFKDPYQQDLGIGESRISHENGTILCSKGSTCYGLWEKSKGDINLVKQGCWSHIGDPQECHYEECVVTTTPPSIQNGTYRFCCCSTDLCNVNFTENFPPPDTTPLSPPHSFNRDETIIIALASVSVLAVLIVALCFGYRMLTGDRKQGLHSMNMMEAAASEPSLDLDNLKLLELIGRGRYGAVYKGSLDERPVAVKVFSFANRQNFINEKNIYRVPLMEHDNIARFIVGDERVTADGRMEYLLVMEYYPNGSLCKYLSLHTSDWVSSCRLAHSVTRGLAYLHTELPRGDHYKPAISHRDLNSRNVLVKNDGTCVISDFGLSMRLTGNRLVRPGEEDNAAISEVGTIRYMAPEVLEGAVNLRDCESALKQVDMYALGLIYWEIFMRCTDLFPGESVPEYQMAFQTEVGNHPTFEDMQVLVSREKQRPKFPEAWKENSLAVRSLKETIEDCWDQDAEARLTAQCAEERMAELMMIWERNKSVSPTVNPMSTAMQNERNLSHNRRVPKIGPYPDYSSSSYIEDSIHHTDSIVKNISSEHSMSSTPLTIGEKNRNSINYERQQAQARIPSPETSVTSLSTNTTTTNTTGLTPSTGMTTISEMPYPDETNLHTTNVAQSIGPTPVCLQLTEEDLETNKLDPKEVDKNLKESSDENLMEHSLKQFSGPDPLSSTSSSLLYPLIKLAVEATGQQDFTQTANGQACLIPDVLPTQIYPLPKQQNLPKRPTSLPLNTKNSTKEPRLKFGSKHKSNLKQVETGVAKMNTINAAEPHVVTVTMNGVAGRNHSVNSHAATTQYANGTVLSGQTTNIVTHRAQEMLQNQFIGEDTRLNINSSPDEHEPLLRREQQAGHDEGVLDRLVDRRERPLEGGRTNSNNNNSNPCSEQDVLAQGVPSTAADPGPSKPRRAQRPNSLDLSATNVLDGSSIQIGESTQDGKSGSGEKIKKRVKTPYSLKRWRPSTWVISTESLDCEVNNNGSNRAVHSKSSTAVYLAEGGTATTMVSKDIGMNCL

[2] = target: T2, BRPF1 (Homo sapiens, UniProt P55201)
T2 sequence (P55201 1-1214): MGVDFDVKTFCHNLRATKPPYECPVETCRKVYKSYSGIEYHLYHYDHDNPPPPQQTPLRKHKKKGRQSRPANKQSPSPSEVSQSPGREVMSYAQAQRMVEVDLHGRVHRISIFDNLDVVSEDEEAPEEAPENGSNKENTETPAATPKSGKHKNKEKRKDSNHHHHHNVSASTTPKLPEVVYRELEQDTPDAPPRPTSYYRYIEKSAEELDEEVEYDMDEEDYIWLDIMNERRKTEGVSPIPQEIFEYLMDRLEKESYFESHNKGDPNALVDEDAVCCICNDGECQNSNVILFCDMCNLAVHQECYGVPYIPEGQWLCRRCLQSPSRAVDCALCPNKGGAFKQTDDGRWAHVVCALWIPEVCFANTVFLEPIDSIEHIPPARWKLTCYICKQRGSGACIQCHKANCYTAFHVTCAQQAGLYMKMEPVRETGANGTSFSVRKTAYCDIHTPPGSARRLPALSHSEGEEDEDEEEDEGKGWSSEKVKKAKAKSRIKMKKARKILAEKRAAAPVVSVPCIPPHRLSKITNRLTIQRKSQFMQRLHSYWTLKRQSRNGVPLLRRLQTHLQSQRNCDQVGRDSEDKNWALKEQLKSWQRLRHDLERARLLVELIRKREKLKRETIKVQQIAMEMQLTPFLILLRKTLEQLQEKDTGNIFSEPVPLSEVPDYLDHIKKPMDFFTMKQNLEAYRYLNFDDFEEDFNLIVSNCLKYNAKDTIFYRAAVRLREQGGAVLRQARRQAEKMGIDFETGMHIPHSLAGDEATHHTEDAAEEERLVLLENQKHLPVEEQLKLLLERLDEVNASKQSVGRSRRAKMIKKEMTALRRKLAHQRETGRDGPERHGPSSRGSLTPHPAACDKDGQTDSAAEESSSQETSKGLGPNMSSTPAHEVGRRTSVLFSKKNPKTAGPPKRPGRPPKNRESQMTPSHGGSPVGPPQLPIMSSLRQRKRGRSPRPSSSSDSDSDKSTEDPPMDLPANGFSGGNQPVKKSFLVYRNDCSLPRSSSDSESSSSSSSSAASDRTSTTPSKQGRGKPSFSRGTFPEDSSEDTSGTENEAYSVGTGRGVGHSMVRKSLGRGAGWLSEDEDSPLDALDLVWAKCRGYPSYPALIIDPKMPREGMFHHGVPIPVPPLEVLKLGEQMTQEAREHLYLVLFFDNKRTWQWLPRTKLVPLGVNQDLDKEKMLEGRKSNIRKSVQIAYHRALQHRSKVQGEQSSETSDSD

[3] = target: CaMK1d (Homo sapiens, UniProt Q8IU85)
[4] = target: T3, MAP2K7 (Homo sapiens, UniProt O14733)
T3 sequence (O14733 1-419): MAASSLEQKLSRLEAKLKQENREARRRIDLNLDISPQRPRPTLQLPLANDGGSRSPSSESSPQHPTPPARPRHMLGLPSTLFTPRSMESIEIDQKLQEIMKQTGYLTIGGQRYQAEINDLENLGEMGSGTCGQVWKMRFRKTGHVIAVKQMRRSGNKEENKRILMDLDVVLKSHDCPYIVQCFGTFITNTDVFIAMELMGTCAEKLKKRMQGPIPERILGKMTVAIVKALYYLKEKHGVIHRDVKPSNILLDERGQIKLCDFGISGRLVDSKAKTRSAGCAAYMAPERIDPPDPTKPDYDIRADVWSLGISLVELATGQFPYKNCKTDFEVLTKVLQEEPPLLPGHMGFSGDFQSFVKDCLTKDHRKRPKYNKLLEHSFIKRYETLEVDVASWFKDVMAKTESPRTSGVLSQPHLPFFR

[5] = target: NEK7 (Homo sapiens, UniProt Q8TDX7)
[6] = target: p38a (Homo sapiens, UniProt Q16539)
Sequence of p38a (Q16539 whole entry): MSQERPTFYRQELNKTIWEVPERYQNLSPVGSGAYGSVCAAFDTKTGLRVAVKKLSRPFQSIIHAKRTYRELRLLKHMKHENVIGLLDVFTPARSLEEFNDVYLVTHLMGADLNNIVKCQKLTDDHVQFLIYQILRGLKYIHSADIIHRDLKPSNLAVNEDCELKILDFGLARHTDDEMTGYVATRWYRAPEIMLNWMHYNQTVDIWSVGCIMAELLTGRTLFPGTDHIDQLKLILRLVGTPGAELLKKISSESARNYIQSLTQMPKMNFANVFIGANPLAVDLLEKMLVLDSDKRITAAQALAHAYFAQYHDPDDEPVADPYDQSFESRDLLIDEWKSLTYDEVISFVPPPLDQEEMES

Sequence of CaMK1d (Q8IU85 whole entry): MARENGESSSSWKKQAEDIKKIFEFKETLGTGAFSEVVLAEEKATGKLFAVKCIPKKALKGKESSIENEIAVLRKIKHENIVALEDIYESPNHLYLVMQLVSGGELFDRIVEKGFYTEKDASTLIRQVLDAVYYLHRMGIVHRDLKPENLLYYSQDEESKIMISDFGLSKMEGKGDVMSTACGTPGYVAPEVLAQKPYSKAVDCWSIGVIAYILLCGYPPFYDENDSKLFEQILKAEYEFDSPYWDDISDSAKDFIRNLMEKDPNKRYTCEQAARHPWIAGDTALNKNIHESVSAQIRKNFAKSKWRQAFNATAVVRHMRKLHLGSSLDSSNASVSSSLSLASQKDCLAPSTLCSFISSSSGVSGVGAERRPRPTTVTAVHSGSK
Sequence of NEK7 (Q8TDX7 whole entry): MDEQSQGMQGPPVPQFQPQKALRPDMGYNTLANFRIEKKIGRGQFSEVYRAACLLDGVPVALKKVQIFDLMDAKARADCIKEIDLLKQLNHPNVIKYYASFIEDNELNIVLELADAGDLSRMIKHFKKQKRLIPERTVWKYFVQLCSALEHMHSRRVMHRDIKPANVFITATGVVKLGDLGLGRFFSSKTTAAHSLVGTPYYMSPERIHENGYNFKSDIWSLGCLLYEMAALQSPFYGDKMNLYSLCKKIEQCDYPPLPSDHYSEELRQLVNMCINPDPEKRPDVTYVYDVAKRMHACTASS

ΔTm 32 [1]: -0.4 °C
ΔTm 32 [2]: -1.4 °C
ΔTm 32 [3]: 6.0 °C
ΔTm 32 [4]: 7.3 °C
ΔTm 32 [5]: -0.6 °C
ΔTm 32 [6]: 5.3 °C
Structure (SMILES): Cc1cccc(-c2ccc(-c3cc4cnc(Nc5ccc(C)c(O)c5)nc4n(CCCCN)c3=O)c(Cl)c2)n1 [compound 32, 8-(4-Aminobutyl)-6-(2-chloro-4-(6-methylpyridin-2-yl)phenyl)-2-((3-hydroxy-4-methylphenyl)amino)pyrido[2,3-d]pyrimidin-7(8H)-one]

ΔTm 31 [1]: 1.0 °C
ΔTm 31 [2]: -3.4 °C
ΔTm 31 [3]: 5.6 °C
ΔTm 31 [4]: 8.9 °C
ΔTm 31 [5]: -1.6 °C
ΔTm 31 [6]: 4.7 °C
Structure (SMILES): Cc1cccc(-c2ccc(-c3cc4cnc(Nc5ccc(O)cc5)nc4n(CCCCN)c3=O)c(Cl)c2)n1 [compound 31, 8-(4-Aminobutyl)-6-(2-chloro-4-(6-methylpyridin-2-yl)phenyl)-2-((4-hydroxyphenyl)amino) pyrido[2,3-d]pyrimidin-7(8H)-one]

ΔTm MR30 (27) [1]: -0.1 °C
ΔTm MR30 (27) [2]: -1.8 °C
ΔTm MR30 (27) [3]: 2.4 °C
ΔTm MR30 (27) [4]: 2.6 °C
ΔTm MR30 (27) [5]: -0.4 °C
ΔTm MR30 (27) [6]: 3.6 °C
Structure (SMILES): Cc1cccc(-c2ccc(-c3cc4cnc(NCCCN5CCCC5=O)nc4n(CCCCN)c3=O)c(Cl)c2)n1 [compound 27, MR30]

ΔTm 28 [1]: -0.1 °C
ΔTm 28 [2]: -1.6 °C
ΔTm 28 [3]: 4.8 °C
ΔTm 28 [4]: 2.9 °C
ΔTm 28 [5]: -0.7 °C
ΔTm 28 [6]: 3.9 °C
Structure (SMILES): Cc1cccc(-c2ccc(-c3cc4cnc(Nc5cc(C(F)(F)F)ccc5C)nc4n(CCCCN)c3=O)c(Cl)c2)n1 [compound 28, 8-(4-Aminobutyl)-6-(2-chloro-4-(6-methylpyridin-2-yl)phenyl)-2-((2-methyl-5-(trifluoromethyl)phenyl)amino)pyrido[2,3-d]pyrimidin-7(8H)-one]

ΔTm 30 [1]: -0.2 °C
ΔTm 30 [2]: -4.4 °C
ΔTm 30 [3]: 6.8 °C
ΔTm 30 [4]: 6.2 °C
ΔTm 30 [5]: -0.9 °C
ΔTm 30 [6]: 5.5 °C
Structure (SMILES): Cc1cccc(-c2ccc(-c3cc4cnc(Nc5ccc(CCCO)cc5)nc4n(CCCCN)c3=O)c(Cl)c2)n1 [compound 30, 8-(4-Aminobutyl)-6-(2-chloro-4-(6-methylpyridin-2-yl)phenyl)-2-((4-(3-hydroxypropyl)phenyl)amino)pyrido[2,3-d]pyrimidin-7(8H)-one]

ΔTm 29 [1]: 0.0 °C
ΔTm 29 [2]: -1.2 °C
ΔTm 29 [3]: 3.7 °C
ΔTm 29 [4]: 1.4 °C
ΔTm 29 [5]: -0.2 °C
ΔTm 29 [6]: 3.2 °C
Structure (SMILES): Cc1cccc(-c2ccc(-c3cc4cnc(NCCCN5CCNCC5)nc4n(CCCCN)c3=O)c(Cl)c2)n1 [compound 29, 8-(4-Aminobutyl)-6-(2-chloro-4-(6-methylpyridin-2-yl)phenyl)-2-((3-(piperazin-1-yl)propyl)amino)pyrido[2,3-d]pyrimidin-7(8H)-one]
